# In patent publication US20130115256A1, “METHODS FOR TREATING OR PREVENTING VASCULAR GRAFT FAILURE” (priority 2010, published 2013):
# Experiments:
# [1] = tested on: human coronary artery endothelial cells (HCAEC); experiment: TNF-α-induced IL-6 and IL-8 expression in HCAEC (ELISA); format: cell-based; conditions: 0.5 mM MMI-0100, 24 hours after 6 hour TNF-α
# Method: Primary human coronary artery endothelial cells (HCAEC) were cultured and seeded onto a 96-well plate, using methods described in the MTS proliferation assay above. Cells were again stimulated with 20 ng/ml of TNF-α for 6 hours and then treated with MMI-0100 (SEQ ID NO: 1) for approximately 24 hours. Supernatants were then collected and analyzed for drug effect on inflammatory cytokines.
# IL-6 (Cat #: 900-K16; Lot #: 0909016) and IL-8 (Cat #: 900-K18; Lot #: 0209018) ELISA kits (Peprotech; Rocky Hill, N.J.) were used to measure levels of these cytokines from HCAEC supernatants following treatment with MMI-0100 ([…]; SEQ ID NO: 1). The Human IL-6 ELISA development kit contains the key components required for the quantitative measurement of natural and/or recombinant hIL-6 in a sandwich ELISA format within the range of 32-2000 pg/ml. Human IL-8 ELISA development kit contains the key components required for the quantitative measurement of natural and/or recombinant hIL-8 in a sandwich ELISA format within the range of 16-1000 pg/ml.
# Briefly, 10 μl of supernatant was diluted with 90 μl of diluents; 3 replicates of each sample were used. Data were collected at 405 nm with correction at 650 nm on a plate reader. Each plate was monitored for 1 hour with readings taken every 5 minutes. Concentrations of IL-6 and IL-8 in test samples were determined by extrapolating from a standard curve. […]
# MKK6 = target: T1, MKK6 (Homo sapiens, UniProt P52564); experiment: MKK6 radiometric kinase assay; format: biochemical; conditions: MMI-0100 100 μM; remaining kinase activity
# T1 construct: purchased Millipore (KinaseProfiler service)
# T1 sequence (P52564 1-334): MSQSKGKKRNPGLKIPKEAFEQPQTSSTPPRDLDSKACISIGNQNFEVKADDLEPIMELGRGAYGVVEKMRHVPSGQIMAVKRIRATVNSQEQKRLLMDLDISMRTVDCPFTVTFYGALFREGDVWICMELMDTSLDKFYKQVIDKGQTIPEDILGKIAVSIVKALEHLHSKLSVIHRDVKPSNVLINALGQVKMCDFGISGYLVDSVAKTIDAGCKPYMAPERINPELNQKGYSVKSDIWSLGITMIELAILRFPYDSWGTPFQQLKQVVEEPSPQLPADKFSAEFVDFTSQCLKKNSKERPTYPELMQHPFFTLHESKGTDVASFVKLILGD
# Excerpt: A commercial radiometric assay service was used to test the specificity and potency of MMI-0100 ([…]; SEQ ID NO: 1) by measuring its half maximal inhibitory concentrations (IC50). This quantitative assay measures how much MK2 inhibitor (MMI-0100; […] (SEQ ID NO: 1)) is needed to inhibit 50% of a given biological process or component of a process (i.e., an enzyme, cell, or cell receptor). Specifically, in these assays, a positively charged substrate is phosphorylated with a radiolabeled phosphate group from an ATP if the kinase is not inhibited by an inhibitor peptide. The positively charged substrate then is attracted to a negatively charged filter membrane, quantified with a scintillation counter, and compared to a 100% activity control. ATP concentrations within 15 μM of the apparent Km for ATP were chosen since an ATP concentration near the Km may allow for the kinases to have the same relative amount of phosphorylation activity. The individual conditions for each radiometric assay are as follows.
# The reaction was initiated by adding the MgATP. After incubation for 40 minutes at room temperature, 5 μl of the incubation mix was used to initiate the p38MAPK radiometric assay described above.
# IC50 values for inhibitor peptides were determined using Millipore's IC50 Profiler Express service. The IC50 value was estimated from a 10-point curve of one-half log dilutions. […]
sequence,measurement,setting,value
YARAAARQARAKALARQLGVAA [MMI-0100],TNF-α-induced IL-6 expression,[1],reduced the level of TNF-α-induced IL-6 expression to that of the untreated control
same,TNF-α-induced IL-8 expression,[1],no effect
same,"Percent Activity, MKK6",MKK6,50%
